The series is described as follows: Pharmacokinetic study in Sprague Dawley rats, single oral dose, plasma LC/MS/MS. Format: in vivo. The settings on record: suspension in 0.5% methylcellulose in water. How it is done:
Pharmacokinetic studies were carried out in Sprague Dawley rats. Exemplary compounds were administered orally by gavage to groups of three rats using a single oral dose of 5 mg/kg. Each oral dose was prepared as a suspension in 0.5% methylcellulose in water. Blood samples were obtained serially from each rat at 0, 15, 30 min, and then 1, 2, 4, 8, and 24 hrs post dose.
Concentrations of an administered compound and the corresponding metabolite (Compound 1) in rat plasma were determined by a HPLC tandem mass spectrometric (LC/MS/MS) method. 50 μL Plasma PPT by ISTD in MeOH/Acetonitrile (1:1, v/v). 200 μL of 5 ng/mL Terfenadine and Buspirone was added to in MeOH/Acetonitrile (1:1, v/v) and mixed well. […]
Quantification of compounds were achieved by mass spectrometry using Multiple Reaction Monitoring (MRM) mode, monitoring the transitions specific to each exemplary compound and 447.34>405.20 for Compound 1. The quantification limit of the assay was 10 ng/mL for Compound 1.
Non-compartmental pharmacokinetic parameters were determined using a commercial program WinNonLin Professional, Version 8.0 (Pharsight, Mountain View, Calif.). […]
For oral administration, t½ (hr), tmax (hr), Cmax (ng/mL), AUClast (hr*ng/mL), AUCInf (hr*ng/mL), AUC Extr (%), MRTInf (hr), Cmax Ratio (Parent/Pro), AUClast Ratio (Parent/Pro) were determined.

Turning to `CCCn1c(=O)c2[nH]c(-c3cnn(Cc4cccc(C(F)(F)F)c4)c3)nc2n(CC)c1=O` [Compound 1, 8-(1-(3-(Trifluoromethyl)benzyl)-1H-pyrazol-4-yl)-3-ethyl-1-propyl-1H-purine-2,6(3H,7H)-dione], the AUC(0-t) (rat, Compound 1, single oral dose of 5 mg/kg, read-out: AUC (AUClast)) was below 30000 ng·h/mL.

Regarding `CCCC(=O)OCn1c(-c2cnn(Cc3cccc(C(F)(F)F)c3)c2)nc2c1c(=O)n(CCC)c(=O)n2CC` [Compound E, (3-ethyl-2,6-dioxo-1-propyl-8-(1-(3-(trifluoromethyl)benzyl)-1H-pyrazol-4-yl)-1,2,3,6-tetrahydro-7H-purin-7-yl)methyl butyrate], where the note is “compounds of Formula (B), single oral dose of 5 mg/kg”, the “AUC (AUClast)” value is listed as “α or β”.
